Results taken from PMC7397466, “Expression, purification and crystal structure determination of a ferredoxin reductase from the actinobacterium Thermobifida fusca” (Acta Crystallographica. Section F, Structural Biology …, 2020).

Biological target: T1, FdR9 (Thermobifida fusca, UniProt Q47QF8)
T1 construct: gene Tfu_1273
Experiment: X-ray crystal structure, […] Å
Format: binding
Details: copurified cofactor; crystals at pH 6.5, 298 K

T1 sequence (Q47QF8 entry or part of it): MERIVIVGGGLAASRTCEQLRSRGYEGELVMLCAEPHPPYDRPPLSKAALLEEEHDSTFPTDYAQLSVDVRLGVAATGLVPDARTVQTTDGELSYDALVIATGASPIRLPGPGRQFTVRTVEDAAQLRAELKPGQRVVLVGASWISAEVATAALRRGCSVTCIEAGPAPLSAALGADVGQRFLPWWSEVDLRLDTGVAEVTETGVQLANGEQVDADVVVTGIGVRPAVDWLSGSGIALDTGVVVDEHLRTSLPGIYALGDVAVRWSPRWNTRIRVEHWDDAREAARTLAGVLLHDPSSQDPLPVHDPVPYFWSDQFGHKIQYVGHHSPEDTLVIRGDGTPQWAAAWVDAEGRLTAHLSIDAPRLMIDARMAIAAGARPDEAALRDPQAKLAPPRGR

Cc1cc2nc3c(=O)[nH]c(=O)nc-3n(C[C@H](O)[C@H](O)[C@H](O)COP(=O)(O)OP(=O)(O)OC[C@H]3O[C@@H](n4cnc5c(N)ncnc54)[C@H](O)[C@@H]3O)c2cc1C [FAD]
X-ray crystal structure, 1.9 Å: The resulting electron-density map allowed the identification of the FAD molecule bound to the reductase
